Test results published in patent US20150044702A1, “MEANS AND METHODS FOR ASSESSING DISORDERS RELATED TO IMPAIRED IRON […] ENERGY METABOLISM” (BASF SE, priority 2012, published 2015).
Marks after values point to notes of the source that are not given here.

Assay: 28-day rat study, plasma metabolite profiling: markers for Energy metabolism decreased
Type: in vivo
Settings: for 3-Hydroxybutyrate, treatment ratio versus control / Citrate, treatment ratio versus control / Pyruvate, treatment ratio versus control / Succinate, treatment ratio versus control: male rats, plasma; for capability of inducing impaired energy metabolism: statement in words
Text: Drinking water was also offered ad libitum.
The samples were centrifuged for generation of plasma.

| Compound | 3-Hydroxybutyrate, treatment ratio versus control (day 7) | Citrate, treatment ratio versus control (day 7) | Pyruvate, treatment ratio versus control (day 7) | Succinate, treatment ratio versus control (day 7) | capability of inducing impaired energy metabolism | 3-Hydroxybutyrate, treatment ratio versus control (day 14) | Citrate, treatment ratio versus control (day 14) | Pyruvate, treatment ratio versus control (day 14) | Succinate, treatment ratio versus control (day 14) |
| --- | --- | --- | --- | --- | --- | --- | --- | --- | --- |
| NC(=O)c1ccc(N)nc1 [6-Aminonicotinamide i.p., 6-Aminopyridine-3-carboxamide] | 0.31* | 0.62* | 0.31* | 0.92* | capable of inducing impaired energy metabolism | – | – | – | – |
| COCCO [2-Methoxyethanol] | 0.45* | 0.7* | 0.63* | 0.91 | capable of inducing impaired energy metabolism | 0.24* | 0.39* | 0.66* | 0.99 |
